According to US9565857B2, “Antimicrobial solutions” (Board of Regents, The University of Texas System, priority 2010, dated 2017):

Columns and labels:
Candida glabrata = test: modified Kuhn's biofilm model on silicone discs, lock solutions; format: cell-based; details: quantitative culture of biofilm discs after 2 hrs in solution at 37° C.
Experimental: (§1) Biofilm was grown on sterile silicone discs following a modified Kuhn's method. Briefly, silicone discs were placed into a 24 well tissue culture plate and incubated overnight at 37° C. The plasma was then removed and replaced with 1 mL of 5.5×10^5 CFU/mL inoculum of various organisms. The plates were then incubated for an additional 24 hrs at 37° C. Inoculum was then removed and discs were washed shaking for 30 minutes in 0.9% sterile saline. After washing the discs were placed in 1 mL of various antimicrobial solutions and incubated at 37° C. for 2 hrs. The discs were then removed and placed in 5 mL of 0.9% sterile saline and sonicated to disrupt any remaining biofilm. The resulting solution was then quantitatively cultured by making serial dilutions in 0.9% sterile saline and plating on agar plates, TSA+5% sheep blood for all bacterial organisms and Sabouraud Dextrose Agar for yeasts. A total of 3-9 discs were used for both organisms and respective labs solutions (see Tables 4-6).
(§2) Statistical methods: Wilcoxon rank sum tests were used for comparisons. All the analyses were performed using SAS version 9.1 (SAS Institute Inc., Cary, N.C.).

[1] = test system: MDR-Pseudomonas aeruginosa (PS 4689); test: as above; format: cell-based; details: quantitative culture of biofilm discs after 2 hrs in solution at 37° C.
Experimental: as §1, §2

[2] = test system: methicillin resistant Staphylococcus aureus (MRSA 4798); test: as above; format: cell-based; details: quantitative culture of biofilm discs after 2 hrs in solution at 37° C.
Experimental: as §1, §2

MRSA = test: modified quantitative germicidal spray / quantitative carrier test, Example 1; format: cell-based, Staphylococcus aureus; details: criterion: complete kill on 9 of 10 carriers, positive carrier at least 99% reduction; one minute
Experimental: Sterile 50 mL centrifuge tubes, pre-filled with 20 mL of desired neutralizer.
Use 3″×1″ sterile glass containers. Place each carrier into a sterile Petri plastic dish.
Inoculate each carrier with 10 μL of bacterial or fungal suspension. If a carrier has a frosted end, inoculate the non-frosted end.
Using a sterile inoculating needle, spread the inoculum into an approximate 1 cm×1 cm square.
Dry the carriers in a 35° C. incubator for 30 min (lids cracked) or 40 min (lids closed).
Spray each carrier as specified by the test product. Ensure the inoculated area is thoroughly covered. Because of the time it takes to transfer the carrier into the neutralizer, a 30-second (or longer) interval time is recommended.
After the specified exposure time, transfer each carrier to a pre-filled centrifuge tube using forceps. Be sure to pick up the carrier by the non-inoculated end and place the inoculated end into the neutralizer.
Immediately close the cap and invert the tube several times (10 should be sufficient) so the neutralizer coats the entire carrier.
From this point on, follow the enumeration procedure as specified in the Quantitative Carrier Test SOP. […]
The aim of these sets of experiments is to compare the activity of these various solutions on a 10-set slid carriers of MRSA using standard EPA quantitate carrier test in 25-50% calf serum.

Row | SMILES | Mean (Candida glabrata) | Median (range) (Candida glabrata) | Mean [1] | Median (range) [1] | Mean [2] | Median (range) [2] | test of being highly effective against MRSA (passed/failed) (MRSA)
1 | OCC(O)CO [50% Glycerol alone, Glycerol] | 6.2 × 10^3 | 1.1 × 10^3 | 1.0 × 10^6 | 1.0 × 10^6 | 1.0 × 10^7 | 1.0 × 10^6 | 
2 | N=C(NCCCCCCNC(=N)NC(=N)Nc1ccc(Cl)cc1)NC(=N)Nc1ccc(Cl)cc1 [0.06% CHG alone, 1,1′-hexamethylene-bis-[5-(4-chlorophenyl)-biguanide]] |  |  |  |  |  |  | failed the test
